Each block holds one molecule with its values, some of them ahead of it.
Experiments:
[1] = test system: NUGC-3, gastric cancer cell line with a TP53 Y220C mutation; assay: MTT cell proliferation assay; assay type: cell-based, human; conditions: for IC50: Homo sapiens, NUGC-3, 120 h, NUGC-3 cells, five days incubation
Protocol: We also evaluated the effects of these compounds on the growth and viability of four cancer cell lines in vitro. Two of the cell lines (NUGC-3, gastric cancer cell line with a TP53 Y220C mutation and T3M-4, pancreatic carcinoma cell line) have the TP53 Y220C mutation leading to the p53 Y220C mutant protein; SJSA-1 is a p53 WT cell line, and NUGC-3-KO is an isogenic p53 knockout cell line.[11] After incubating the cells with the compounds for five days, cell viability was measured using the 3-(4,5-dimethylthiazol-2-yl)-2,5-diphenyltetrazolium bromide (MTT) assay.
C = (Ac − B a)/(Dc − B d),
Prism (GraphPad) or XLfit software (IDBS).
Cells were seeded at an appropriate
Compounds were tested at eight concentrations with 2-fold serial dilutions. […]
with a reference wavelength of 650 nm. […]
untreated cells (control). […]

[2] = target: T1, recombinant His-tag Y220C p53 DNA binding domain (Homo sapiens, UniProt P04637, Y220C); assay: TR-FRET DNA binding assay (SC150); assay type: biochemical
T1 construct: Y220C p53 DBD protein (amino acids #94-312); made in house
Excerpt: At the outset of our hit generation campaign, several small molecules targeting the p53 Y220C mutant protein were identified. Two notable examples, supported by crystallographic data, were the compounds from the carbazole series[6] (PhiKan83) and the iodophenol series[7] (PK1596) (Figure 1). To assess the in vitro potency of the p53 Y220C reactivators, a time-resolved fluorescence resonance energy transfer (FRET) assay was developed. In this assay, recombinant His-tag Y220C p53 DNA binding domain binds to biotin-labeled consensus DNA, and the FRET signal is measured between the allophycocyanin-conjugated anti-His-tag antibody and europium-conjugated streptavidin. The […] concentration required to increase DNA binding by 1.5-fold (SC150) could then be determined. The carbazole compound (PhiKan83) enhanced DNA binding with an SC150 of 37.2 μM. […]
Time-Resolved Fluorescence Resonance Energy Transfer (TR-FRET) Assay
DNA binding activity was measured by the TR-FRET assay. In this assay, the recombinant His6-tag Y220C p53 DNA binding domain (DBD) protein binds to biotin labeled consensus DNA. The binding of recombinant His6-tag Y220C p53 DBD protein and biotin-labeled consensus DNA is detected by the fluorescence resonance energy transfer (FRET) between allophycocyanin (APC) conjugated anti-His6 tag antibody and Europium-(Eu) conjugated Streptavidin. Test compounds, at 2 mM stock in DMSO, were diluted t hr e e-f ol d in serial dilutions in DMSO and 1.2 µL per well were added into 384-well polypropylene black plates (NUNC). Subsequently, 30 µL per well of 181 nM recombinant His6-tag Y220C p53 DBD protein (amino acids #94-312) and 9.1 nM of APC conjugated anti-His6 tag antibody (Columbia Biosciences) in ice-cold Assay Buffer 1 (50 mM Tris-HCl, pH 7.4, 75 mM KCl, 0.75 mM DTT and 0.2 mg/mL bovine serum albumin [BSA]) was added. As a background control, 30 µL of Assay Buffer 1 containing 9.1 nM of APC anti-His6 antibody (no Y220C protein) was also added into a second set of serial diluted compound plates. The samples were centrifuged at 1,200 rpm (Eppendorf 5810R plate centrifuge) for 1 minute and incubated at room temperature (20 °C) for 15 min. The samples were then incubated at 27 °C in a water bath for 48 min. Afterwards, 5 µL per well of 145 nM biotin labeled oligonucleotide from a consensus DNA p53 response element (a DNA duplex with 5’ to 3’sequence of […]
and biotin attached to the 3’ end of the complementary DNA) and 8.8 nM Eu-conjugated streptavidin (Columbia Biosciences) in Assay Buffer 2 (50 mM Tris-HCl, pH 7.4, 75 mM KCl and 0.2 mg/mL BSA) were added. The samples were centrifuged at 1,200 rpm for 1 min and incubated at room temperature (20 °C) for 20 min. Assay signals were monitored by reading excitation at 340 nm, and emission fluorescence at 615 and 665 nm, on an Envision reader (Perkin El mer). Normalized TR -FRET assay signal (Rn) was calculated by the formula:
Rn = [(A − B a − C × (D − Bd))/(D − Bd)] × (Dc − B d),
C = (Ac − B a)/(Dc − B d), […]

[3] = Pharmacokinetic study in mice; conditions: Table 3, PO, 50 mg/kg
Protocol: Pharmacokinetic parameters were evaluated in female CD-1 mice. Animals received an oral gavage dose of 50 mg/kg of the test article. The test article was formulated in a solution containing 2% hydroxypropyl
cellulose and 0.5% Tween 80 in water. Blood samples were collected at 0.5, 1, 2, 4, 7, and 24 h post dose.
Blood samples were processed into plasma, and the concentrations of the test article were determined by
LC-MS/MS. P harmacokinetic parameters were calculated using the Phoenix WinNonlin 6.3 program,
employing a non- compartmental model 200.

[4] = Table 3, concentration required to increase DNA binding by 1.5-fold
[5] = Table 1, concentration required to increase DNA binding by 1.5-fold
[6] = Table 2, concentration required to increase DNA binding by 1.5-fold
[7] = Figure 1, enhancement of DNA binding

Compound: Cc1cc(S(C)(=O)=O)ccc1NCC#Cc1cc2c(NC3CCN(C)CC3)cccc2n1CC(F)(F)F [Compound 12, 2-[3-(2-methyl-4-methylsulfonyl-anilino)prop-1-ynyl]-N-(1-methyl-4-piperidyl)-1-(2,2,2-trifluoroethyl)indol-4-amine]
SC150 [2, 5]: 0.030 µM

Compound: CC(C)(C#N)c1ccc(NCC#Cc2cc3c(NC4CCOCC4)cccc3n2CC(F)(F)F)cn1 [Compound 9, 2-methyl-2-(5-((3-(4-((tetrahydro-2H-pyran-4-yl)amino)-1-(2,2,2-trifluoroethyl)-1H-indol-2-yl)prop-2-yn-1-yl)amino)pyridin-2-yl)propanenitrile]
SC150 [2, 5]: 0.105 µM

Compound: CCN(CC)C1CCN(Cc2cc(C#CCNc3ccccc3)cc(I)c2O)CC1 [PK1596, reference compound]
SC150 [2, 7]: 1.6 µM

Compound: CCn1c(C#CCNc2ccccc2)cc2cc(C(=O)NC3CCN(C)CC3)ccc21 [Compound 2, 2-(3-anilinoprop-1-ynyl)-1-ethyl-N-(1-methyl-4-piperidyl)indole-5-carboxamide]
SC150 [2, 5]: >150 µM

Compound: CCn1c2ccccc2c2cc(CNC)ccc21 [PhiKan83, reference compound]
SC150 [2, 7]: 37.2 µM

Compound: COc1cc(S(C)(=O)=O)ccc1NCC#Cc1cc2c(N[C@@H]3CCN(C)C[C@@H]3F)cccc2n1CC(F)(F)F (racemic) [Compound 20, Rac-N-[(3S,4R)-3-fluoro-1-methyl-4-piperidyl]-2-[3-(2-methoxy-4-methylsulfonyl-anilino)prop-1-ynyl]-1-(2,2,2-trifluoroethyl)indol-4-amine]
IC50 ([1]; Table 2): 700 nM | fold higher potency in the MTT assay ([1]; among the two pairs of stereoisomers from fluorine substitution of compound 13): over 3 fold | SC150 [2, 6]: 0.009 µM

Compound: COc1cc(S(N)(=O)=O)ccc1NCC#Cc1cc2c(N[C@@H]3CCN(C)C[C@@H]3F)cccc2n1CC(F)(F)F [Compound 23, 4-((3-(4-(((3S,4R)-3-fluoro-1-methylpiperidin-4-yl)amino)-1-(2,2,2-trifluoroethyl)-1H-indol-2-yl)prop-2-yn-1-yl)amino)-3-methoxybenzenesulfonamide]
IC50 ([1]; Table 3): 261 nM | SC150 [2, 4]: 0.009 µM | Mouse PK Exposure AUC0-last [3]: 8066 ng·h/mL | Mouse PK Exposure Cmax [3]: 1310 ng/mL

Compound: CCn1c(C#CCNc2ccc(C(C)(C)C#N)nc2)cc2cc(CNC3CCOCC3)ccc21 [Compound 6, 2-(5-((3-(1-ethyl-5-(((tetrahydro-2H-pyran-4-yl)amino)methyl)-1H-indol-2-yl)prop-2-yn-1-yl)amino)pyridin-2-yl)-2-methylpropanenitrile]
SC150 [2, 5]: 1.3 µM

Compound: CN1CCC(Nc2cccc3c2cc(C#CCNc2ccc(C(C)(C)C#N)nc2)n3CC(F)(F)F)CC1 [Compound 10, 2-methyl-2-(5-((3-(4-((1-methylpiperidin-4-yl)amino)-1-(2,2,2-trifluoroethyl)-1H-indol-2-yl)prop-2-yn-1-yl)amino)pyridin-2-yl)propanenitrile]
SC150 [2, 5]: 0.054 µM

The remaining lines, values ahead:

IC50 ([1]; Table 3): 1160 nM | SC150 [2, 4]: 0.005 µM
Compound: COc1cc(C(=O)NC2CCN(C)CC2)ccc1NCC#Cc1cc2c(N[C@@H]3CCN(C)C[C@@H]3F)cccc2n1CC(F)(F)F [Compound 31, 4-[3-[4-[[(3S,4R)-3-fluoro-1-methyl-4-piperidyl]amino]-1-(2,2,2-trifluoroethyl)indol-2-yl]prop-2-ynyl-amino]-3-methoxy-N-(1-methyl-4-piperidyl)benzamide]

SC150 [2, 5]: 0.48 µM
Compound: CC(C)(C#N)c1ccc(NCC#Cc2cc3cc(CNC4CCOCC4)ccc3n2CC(F)(F)F)cn1 [Compound 7, 2-methyl-2-(5-((3-(5-(((tetrahydro-2H-pyran-4-yl)amino)methyl)-1-(2,2,2-trifluoroethyl)-1H-indol-2-yl)prop-2-yn-1-yl)amino)pyridin-2-yl)propanenitrile]

IC50 ([1]; Table 3): 531 nM | SC150 [2, 4]: 0.007 µM | Mouse PK Exposure AUC0-last [3]: 3261 ng·h/mL | Mouse PK Exposure Cmax [3]: 807 ng/mL
Compound: COc1cc(C(=O)NC2CCOCC2)ccc1NCC#Cc1cc2c(N[C@@H]3CCN(C)C[C@@H]3F)cccc2n1CC(F)(F)F [Compound 27, 4-((3-(4-(((3S,4R)-3-fluoro-1-methylpiperidin-4-yl)amino)-1-(2,2,2-trifluoroethyl)-1H-indol-2-yl)prop-2-yn-1-yl)amino)-3-methoxy-N-(tetrahydro-2H-pyran-4-yl)benzamide]

IC50 ([1]; Table 2): 3000 nM | SC150 [2, 6]: 0.02 µM
Compound: COc1cc(S(C)(=O)=O)ccc1NCC#Cc1cc2c(N[C@@H]3CCN(C)C[C@H]3F)cccc2n1CC(F)(F)F (racemic) [Compound 19, Rac-N-[(3R,4R)-3-fluoro-1-methyl-4-piperidyl]-2-[3-(2-methoxy-4-methylsulfonyl-anilino)prop-1-ynyl]-1-(2,2,2-trifluoroethyl)indol-4-amine]

SC150 [2, 5]: 0.027 µM
Compound: CN1CCC(Nc2cccc3c2cc(C#CCNc2ccc(S(C)(=O)=O)cc2)n3CC(F)(F)F)CC1 [Compound 11, N-(1-methylpiperidin-4-yl)-2-(3-((4-(methylsulfonyl)phenyl)amino)prop-1-yn-1-yl)-1-(2,2,2-trifluoroethyl)-1H-indol-4-amine]

SC150 [2, 5]: 6.4 µM
Compound: CCn1c(C#CCNc2ccc(C(C)(C)C)nc2)cc2cc(CNC)ccc21 [Compound 5, 6-(tert-butyl)-3-(3-{1-ethyl-5-[(methylamino)methyl]-2-indolyl}-2-propynylamino)pyridine]

SC150 [2, 5]: 26.5 µM
Compound: CCn1c(C#CCNc2ccccc2)cc2cc(CNC3CCOCC3)ccc21 [Compound 3, N-((1-ethyl-2-(3-(phenylamino)prop-1-yn-1-yl)-1H-indol-5-yl)methyl)tetrahydro-2H-pyran-4-amine]

SC150 [2, 5]: 0.030 µM
Compound: CN1CCC(Nc2cccc3c2cc(C#CCNc2ccc(S(C)(=O)=O)cc2OC(F)(F)F)n3CC(F)(F)F)CC1 [Compound 14, N-(1-methyl-4-piperidyl)-2-[3-[4-methylsulfonyl-2-(trifluoromethoxy)anilino]prop-1-ynyl]-1-(2,2,2-trifluoroethyl)indol-4-amine]

SC150 [2, 5]: 1.300 µM
Compound: CC(C)(C#N)c1ccc(NCC#Cc2cc3c(CNC4CCOCC4)cccc3n2CC(F)(F)F)cn1 [Compound 8, 2-methyl-2-(5-((3-(4-(((tetrahydro-2H-pyran-4-yl)amino)methyl)-1-(2,2,2-trifluoroethyl)-1H-indol-2-yl)prop-2-yn-1-yl)amino)pyridin-2-yl)propanenitrile]

IC50 ([1]; Table 3): 791 nM | SC150 [2, 4]: 0.009 µM
Compound: COc1cc(C(=O)N2CCN(C)CC2)ccc1NCC#Cc1cc2c(N[C@@H]3CCN(C)C[C@@H]3F)cccc2n1CC(F)(F)F [Compound 30, [4-[3-[4-[[(3S,4R)-3-fluoro-1-methyl-4-piperidyl]amino]-1-(2,2,2-trifluoroethyl)indol-2-yl]prop-2-ynyl-amino]-3-methoxy-phenyl]-(4-methylpiperazin-1-yl)methanone]

SC150 [2, 5]: 6.3 µM
Compound: CCn1c(C#CCNc2ccc(C)nc2)cc2cc(CNC3CCOCC3)ccc21 [Compound 4, N-(3-(1-ethyl-5-(((tetrahydro-2H-pyran-4-yl)amino)methyl)-1H-indol-2-yl)prop-2-yn-1-yl)-6-methylpyridin-3-amine]
